# Measurements reported in patent publication US20230263826A1, “Compositions and Methods for Treatment and Prevention of Type 1 Diabetes” (The UAB Research Foundation, priority 2021, published 2023).
# Test system: female NOD mice
# Assay: i.p. glucose tolerance test (GTT) in FKGK18-treated NOD mice
# Type: in vivo, mouse
# Conditions: for glucose tolerance vs PBS-T: glucose 2 g/kg i.p.
# Method: FIGS. 1A-1M show the effects of temporal FKGK18 regimen on T1D incidence and islet phenotype, wherein female NOD mice were administered FKGK18 (20 mg/kg, 3 × weekly) or vehicle (PBS-T) starting at 4 or 8 weeks of age. FIGS. 1A and 1B show diabetes incidence; blood glucose was monitored weekly in the 4-week (FIG. 1A; n = 17 and 15 for PBS-T and FKGK18 groups, respectively) and 8-week (FIG. 1B; n = 15 each in the PBS-T and FKGK18 groups) regimen groups for up to 30 weeks. Two consecutive readings of ≥ 275 mg/dL were recorded as onset of T1D (^†P < 0.05). FIGS. 1C-1F show glucose tolerance test (GTT) results, wherein overnight fasted mice were administered glucose (2 g/kg, i.p.), glucose levels in blood from tail vein were monitored over a 2-hour period, and AUC were generated. FIGS. 1C and 1D show four-week group at 14 weeks of age; n = 5 each in the PBS-T and FKGK18 groups. FIGS. 1E and 1F show eight-week group at 25 weeks of age; n = 7 and 5 for PBS-T and FKGK18 groups, respectively. FIGS. 1G-1I show phenotype parameters in the 8-week regimen group. […] FIGS. 1H and 1I show β Cell mass (PBS-T, n = 15; FKGK18, n = 14) (FIG. 1H) and circulating insulin (n = 15 in each group) (FIG. 1I) were determined at sacrifice (PBS-T, 14-30 weeks of age; FKGK18, 16-36 weeks of age). FIGS. 1J and 1K show islet infiltration; paraffin sections (10 µm) of pancreas were prepared and stained with H&E. Percent infiltration for each islet was calculated as the value of noninfiltrated area subtracted from total islet area (% infiltrate = 100 × [(total area - noninfiltrated area)/(total area)]) using ImageJ software. […]
# FIGS. 2A-2E show the effects of FKGK18-withdrawal regimen on T1D incidence and glucose tolerance, wherein female NOD mice were administered FKGK18 (20 mg/kg, 3 × weekly, n = 18) or vehicle (PBS-T, n = 17) starting at 10 days of age and until 14 weeks of age. […] FIGS. 2B and 2D show glucose tolerance test (GTT) results, assessed at 14 (FIG. 2B) and 25 (FIG. 2D) weeks of age (data are presented as mean ± SEM), as described in FIG. 1. […]
smiles,measurement,setting,value
O=C(CCCCc1ccc2ccccc2c1)C(F)(F)F [FKGK18],"glucose tolerance, PBS-T vs FKGK18-withdrawn group","FKGK18 from 10 days until 14 weeks of age, GTT at 14 and 25 weeks of age",indistinguishable
same,glucose tolerance vs PBS-T,"FKGK18 started at 4 weeks of age, GTT at 14 weeks of age",No differences
same,glucose tolerance vs PBS-T,"FKGK18 started at 8 weeks of age, GTT at 25 weeks of age",No differences
